# Measured values from patent US20220395472A1 (Dermavant Sciences GmbH, priority 2021, published 2022).
# Test system: adults with plaque psoriasis
# Test: Long-term extension study (PSOARING 3): PASI score, PASI75, PASI90
# Assay type: in vivo, human
# Excerpt: The PASI scoring system is a widely used, standard, clinical tool for assessing the severity of psoriasis that takes into account the overall severity of erythema (redness), induration (plaque thickness), scale, and the extent of % BSA affected with psoriasis. The 3 clinical signs are each graded on a 5 point scale (0 to 4) and the % BSA affected is scored on a 7 point scale (0 to 6) for each of the 4 specified body regions (head, upper extremities, trunk, and lower extremities). Individual scores are multiplied by a weighted factor for each body region; the sum of these scores gives the overall PASI score. Higher scores indicate more severe disease. PASI is a static assessment made without reference to previous scores. Details on PASI calculation can be found in Appendix 2 of the protocol.
# [1] = Week 16 LOCF, Tapinarof (Pivotal)
# [2] = Week 16 LOCF, Vehicle (Pivotal)
# [3] = Week 16 OC, Tapinarof (Pivotal)
# [4] = Week 40 LOCF, Tapinarof (Pivotal)
# [5] = Week 40 LOCF, Vehicle (Pivotal)
# [6] = Week 40 OC, Tapinarof (Pivotal)
smiles,measurement,setting,value
CC(C)c1c(O)cc(/C=C/c2ccccc2)cc1O [Tapinarof Cream 1%],"PASI, Observed, Mean","Baseline, Overall",4.76
same,"PASI, Observed, Median","Baseline, Overall",3.40
same,"PASI, Observed, Mean","Baseline, Tapinarof (Pivotal)",3.28
same,"PASI, Observed, Median","Baseline, Tapinarof (Pivotal)",2.30
same,"PASI, CFBL, Mean","Week 16 LOCF, Overall",−1.80
same,"PASI, CFBL, Median","Week 16 LOCF, Overall",−0.90
same,"PASI, Observed, Mean","Week 16 LOCF, Overall",2.99
same,"PASI, Observed, Median","Week 16 LOCF, Overall",1.80
same,"PASI, Percent CFBL, Mean","Week 16 LOCF, Overall",−20.93%
same,"PASI, Percent CFBL, Median","Week 16 LOCF, Overall",−40.91%
same,"PASI, CFBL, Mean",[1],−0.54
same,"PASI, CFBL, Median",[1],−0.20
same,"PASI, Observed, Mean",[1],2.74
same,"PASI, Observed, Median",[1],1.80
same,"PASI, Percent CFBL, Mean",[1],−3.20%
same,"PASI, Percent CFBL, Median",[1],−25.00%
same,"PASI, CFBL, Mean",[2],−4.24
same,"PASI, CFBL, Median",[2],−3.80
same,"PASI, Observed, Mean",[2],3.47
same,"PASI, Observed, Median",[2],2.40
same,"PASI, Percent CFBL, Mean",[2],−51.02%
same,"PASI, Percent CFBL, Median",[2],−59.38%
same,"PASI, CFBL, Mean","Week 16 OC, Overall",−1.99
same,"PASI, CFBL, Median","Week 16 OC, Overall",−1.00
same,"PASI, Observed, Mean","Week 16 OC, Overall",2.57
same,"PASI, Observed, Median","Week 16 OC, Overall",1.80
same,"PASI, Percent CFBL, Mean","Week 16 OC, Overall",−25.35%
same,"PASI, Percent CFBL, Median","Week 16 OC, Overall",−44.72%
same,"PASI, CFBL, Mean",[3],−0.67
same,"PASI, CFBL, Median",[3],−0.40
same,"PASI, Observed, Mean",[3],2.38
same,"PASI, Observed, Median",[3],1.60
same,"PASI, Percent CFBL, Mean",[3],−7.79%
same,"PASI, Percent CFBL, Median",[3],−30.00%
same,"PASI, CFBL, Mean","Week 16 OC, Vehicle (Pivotal)",−4.59
same,"PASI, CFBL, Median","Week 16 OC, Vehicle (Pivotal)",−3.80
same,"PASI, Observed, Mean","Week 16 OC, Vehicle (Pivotal)",2.95
same,"PASI, Observed, Median","Week 16 OC, Vehicle (Pivotal)",2.10
same,"PASI, Percent CFBL, Mean","Week 16 OC, Vehicle (Pivotal)",−55.09%
same,"PASI, Percent CFBL, Median","Week 16 OC, Vehicle (Pivotal)",−64.02%
same,"PASI, CFBL, Median","Week 40 LOCF, Overall",−0.90
same,"PASI, Observed, Mean","Week 40 LOCF, Overall",2.97
same,"PASI, Observed, Median","Week 40 LOCF, Overall",1.80
same,"PASI, Percent CFBL, Mean","Week 40 LOCF, Overall",−10.45%
same,"PASI, Percent CFBL, Median","Week 40 LOCF, Overall",−44.44%
same,"PASI, CFBL, Mean",[4],−0.48
same,"PASI, CFBL, Median",[4],−0.20
same,"PASI, Observed, Mean",[4],2.80
same,"PASI, Observed, Median",[4],1.80
same,"PASI, Percent CFBL, Mean",[4],11.96%
same,"PASI, Percent CFBL, Median",[4],−27.27%
same,"PASI, CFBL, Mean",[5],−4.42
same,"PASI, CFBL, Median",[5],−3.90
same,"PASI, Observed, Mean",[5],3.28
same,"PASI, Observed, Median",[5],2.00
same,"PASI, Percent CFBL, Mean",[5],−48.42%
same,"PASI, Percent CFBL, Median",[5],−68.66%
same,"PASI, CFBL, Mean","Week 40 OC, Overall",−2.14
same,"PASI, CFBL, Median","Week 40 OC, Overall",−1.20
same,"PASI, Observed, Mean","Week 40 OC, Overall",2.36
same,"PASI, Observed, Median","Week 40 OC, Overall",1.60
same,"PASI, Percent CFBL, Mean","Week 40 OC, Overall",−16.18%
same,"PASI, Percent CFBL, Median","Week 40 OC, Overall",−56.70%
same,"PASI, CFBL, Mean",[6],−0.51
same,"PASI, CFBL, Median",[6],−0.30
same,"PASI, Observed, Mean",[6],2.38
same,"PASI, Observed, Median",[6],1.60
same,"PASI, Percent CFBL, Mean",[6],8.49%
same,"PASI, Percent CFBL, Median",[6],−35.24%
same,"PASI, CFBL, Mean","Week 40 OC, Vehicle (Pivotal)",−5.53
same,"PASI, CFBL, Median","Week 40 OC, Vehicle (Pivotal)",−4.80
same,"PASI, Observed, Mean","Week 40 OC, Vehicle (Pivotal)",2.31
same,"PASI, Observed, Median","Week 40 OC, Vehicle (Pivotal)",1.40
same,"PASI, Percent CFBL, Mean","Week 40 OC, Vehicle (Pivotal)",−60.12%
same,"PASI, Percent CFBL, Median","Week 40 OC, Vehicle (Pivotal)",−76.39%
